One data set concerns YAP. The experiment in a line: TEAD-LUC activation assay (293A-TEAD-LUC reporter). Type of data set: cell-based. To be noted: Homo sapiens.
A further data set in a line: in vitro. The following applies: human.
In data set [1] the test system is YAP-controlled transcripts (ANRKD1, CYR61, CTGF). The data set is described as follows: YAP-controlled transcript levels in 293A and other human cell lines. The class given is cell-based.
The test system of the next data set is YAP and TEAD proteins. The data set is described as follows: YAP-TEAD association and YAP nuclear localization in cells. The class given is cell-based.
Data set [2] has as its system primary mouse epidermal keratinocytes. The experiment in a line: Colony formation of primary mouse epidermal keratinocytes on dermal feeder layer. Type of data set: cell-based. To be noted: 10-day growth period on dermal feeder layer. An excerpt:
We evaluated the proliferative response of primary cells and tissues to compound 13 treatment. […] In addition, compound 13 treatment allowed for the secondary re-plated expansion of Rhodamine B-stained keratinocytes and the time-dependent expression of YAP-driven transcript Cyr61 (FIGS. 2A-C).

Data set [3] has as its system epidermis of wildtype adult C57BL/6 mice. The data set is described as follows: Topical application to dorsal skin of C57BL/6 mice (epidermal remodeling). Type of data set: in vivo, mouse. How it is done: When applied topically to the dorsal skin of wildtype adult C57BL/6 mice over the course of ten days, compound 13 (10 uM) promoted a dramatic expansion of keratinocytes and K14-positive precursors as assessed by […] and anti-K14 histological staining at study end (FIG. 2D).
(§1) Compound 13 treatment, in an exemplary embodiment, promotes wound healing in human cells and induces a pro-proliferative effect on keratinocytes in the human skin surrogate species, the Yucatan mini pig. Accordingly, there was developed a gel-based formulation of compound 13, which allows for its stable room temperature storage and its topical delivery in high concentrations (up to about 1.5 weight percent).

Another data set relates to Yucatan mini-pig skin. The data set is described as follows: Topical delivery in the Yucatan mini pig. The class given is in vivo.
Text: as §1

The next data set deals with human skin equivalents. The data set is described as follows: Wound healing in human skin equivalents (3 mm full thickness wound). The class given is cell-based.
Text: as §1

Data set [4] in a line: Cytotoxicity in the TEAD-LUC activation assay. The following applies: human.
The mark [5] stands for this setting: Table 4, read-out: TEAD-LUC activation assay EC50.
[6] abbreviates: Table 3, read-out: TEAD-LUC activation assay EC50.

As a reminder, the EC50 is the concentration giving half of the maximal effect. For orientation: IC50 means the concentration that gives 50% inhibition. Low readings indicate higher potency, high ones lower potency.

Structures are written as SMILES. Like-named read-outs stand apart in the source and are kept apart here. Where only a bound is given, the exact number is not on record here.

Turning to `CN1[C@H]2CC[C@@H]1CN(C(=O)c1cc(-c3ccccc3)on1)CC2` [Compound 129], in the data set with YAP (setting [5]), the EC50 is > 20 µM. Also, the IC50 in “in vitro” was > 20 µM.

For `O=C(NCCCc1nccs1)c1cc(-c2ccccc2)on1` [Compound 13, 5-phenyl-N-(3-(thiazol-2-yl)propyl)isoxazole-3-carboxamide], the EC50 with YAP (setting [6]) came out at 1 µM; with YAP (absence of serum, high cell density, read-out: EC50 of luciferase activity induction in 293A-TEAD-LUC cells), 1.6 µM; with YAP (presence of serum, high cell density, read-out: EC50 of luciferase activity induction in 293A-TEAD-LUC cells) it was 1.5 µM. Also, in [1] (293A cells and MCF-10A, HEK293T, H69, HaCaT), the “levels of YAP-controlled transcripts (ANRKD1, CYR61, CTGF)” value was “robustly increased”. In data set [1] (293A cells and other human cell lines), the “levels of YAP itself (YAP1)” value was “did not augment”. In addition, in the data set with YAP and TEAD proteins, the “association of YAP and TEAD proteins in cells” value is on record as “dose-dependently promoted”. For the same molecule, the “nuclear localization of YAP” value in the data set with YAP and TEAD proteins (in response to increased cell density) is given as “induced the nuclear localization of YAP”. Also, the colony forming potential in [2] is ~10 fold. The “YAP-dependent transcripts Ctgf, Cyr61, and Ankrd1” value in [3] (endpoint of the experiment) was “robust upregulation”. In addition, the “epidermal thickening, gel-based formulation versus drug in acetone or DMSO” value in [3] (topical delivery, mouse) was “to a more significant degree”. Besides, the epidermal thickness result in data set [3] (topical, ten days, 10 uM, wildtype mice) is “approximate doubling”. In addition, the KI-67 positive keratinocytes entry in [3] (topical, ten days, study end) is listed as “substantially increased”. In addition, the “epidermal hyperplasia, dermal hyperplasia, YAP-dependent gene expression” value in the data set on Yucatan mini-pig skin is “promoted epidermal hyperplasia, dermal hyperplasia, and YAP-dependent gene expression”. In addition, the “keratinocyte hyperplasia and wound contraction” value in the data set on human skin equivalents is “promoted the hyperplasia of keratinocytes and promoted wound contraction”. Further, in data set [4], the IC50 amounted to 13.7 µM.

In the case of `Cc1ccc(-c2cc(C(=O)NCCC(=O)NC(C)C)no2)cc1C` [Compound 116], the EC50 in the data set with YAP (setting [5]) is > 20 µM. Further, in data set [4], the midpoint of inhibition, the IC50, lay at 1 µM.

Regarding `O=C(NCCCc1nccs1)c1cn2ccccc2n1` [Compound 35], the EC50 in the data set with YAP (setting [6]) is > 20 µM. In addition, in data set [4], the IC50 is > 20 µM.

Consider `O=C(NCCNc1ccccc1)c1cc(-c2ccccc2)on1` [Compound 83], for which, in the data set on YAP (setting [6]), the EC50 was > 20 µM. The IC50 in data set [4] was > 20 µM.

With `O=C(NCCN1CCOCC1)c1cc(-c2ccc(F)cc2)on1` [Compound 136], in the data set with YAP (setting [5]), the EC50 was determined as 5.52 µM. The IC50 in data set [4] was > 20 µM.

On to `O=C(NCCCNc1ccccc1)c1cc(-c2ccccc2)on1` [Compound 6], for which the EC50 in the data set with YAP (setting [6]) came out at 0.91 µM. Also, the IC50 in data set [4] was > 20 µM.

As for `Cc1cccc(C)c1NC(=O)c1n[nH]c(=O)c2ccccc12` [Compound 150], in the data set on YAP (setting [5]), the EC50 was determined as 10 µM. Also, the IC50 in [4] is > 20 µM.

`O=C(Nc1ccccc1-n1cncn1)c1cc(-c2ccccc2)on1` [Compound 143]: in the data set with YAP (setting [5]), the EC50 is > 20 µM. Further, the IC50 in data set [4] is > 20 µM.

Consider `O=C(NCCc1ccc(Cl)c(F)c1)c1cc(-c2ccccc2)on1` [Compound 47], for which the EC50 with YAP (setting [6]) is > 20 µM. The molecule further registered an IC50 in data set [4] of 15 µM.

As for `O=C(c1cc(-c2ccccc2)on1)N1CCC(n2cccc2)CC1` [Compound 115], the EC50 in the data set with YAP (setting [5]) is > 20 µM. Moreover, the IC50 in data set [4] is > 20 µM.

With `CC(C)(C)OC(=O)NCCNC(=O)c1cc(-c2ccccc2)on1` [Compound 59], the EC50 in the data set on YAP (setting [6]) worked out at 3.58 µM. For the same molecule, the IC50 in [4] was > 20 µM.

With `O=C(NCCCn1cccc1)c1cc(-c2cccc(F)c2)on1` [Compound 9], the EC50 with YAP (setting [6]) was > 20 µM. In addition, the IC50 in data set [4] was > 20 µM.

Regarding `CC(=O)Nc1cccc(NC(=O)c2cc(-c3ccccc3)on2)c1` [Compound 123], the EC50 in the data set with YAP (setting [5]) was > 20 µM. Besides, the IC50 in data set [4] is > 20 µM.

For `CC(=O)N1CCCN(C(=O)c2cc(-c3ccccc3)on2)CC1` [Compound 139], the EC50 with YAP (setting [5]) was > 20 µM. For the same molecule, the IC50 in data set [4] is > 20 µM.

For `O=C(NCCCc1nccs1)c1noc(-c2ccccc2)n1` [Compound 103], in the data set on YAP (setting [6]), the half-maximal effective concentration (EC50) is > 20 µM. Besides, the IC50 in data set [4] was > 20 µM.

As to `O=C(NCCCN1CCN(C(=O)c2ccccc2)CC1)c1cc(-c2ccccc2)on1` [Compound 38], the EC50 in the data set with YAP (setting [6]) came to 3.34 µM. In addition, the IC50 in data set [4] was > 20 µM.

In the case of `CC(C)(NC(=O)c1cc(-c2ccccc2)on1)C(F)(F)F` [Compound 44], the EC50 in the data set with YAP (setting [6]) was > 20 µM. In addition, the 50% inhibitory concentration (IC50) in data set [4] is > 20 µM.

In the case of `O=C(NCCc1c[nH]c2ccccc12)c1cc(-c2ccccc2)on1` [Compound 49], the EC50 in the data set with YAP (setting [6]) was > 20 µM. Also, the concentration for half-maximal inhibition (IC50) in [4] is > 20 µM.

As for `O=C(NCCCn1ccnn1)c1cc(-c2cccnc2)on1` [Compound 78], in the data set with YAP (setting [6]), the EC50 was > 20 µM. In addition, in data set [4], the IC50 was > 20 µM.

As to `O=C(NCCCn1cccc1)c1cc(-c2ccccc2)[nH]n1` [Compound 10], the EC50 in the data set with YAP (setting [6]) was > 20 µM. In data set [4], the IC50 was > 20 µM.

With `CCN1C(=O)CCc2cc(NC(=O)c3cccc(Br)c3)ccc21` [Compound 152], the EC50 in the data set with YAP (setting [5]) stood at 10 µM. Also, in [4], the IC50 was > 20 µM.

`O=C(NCCCc1nccs1)c1cc(-c2c(F)cccc2F)on1` [Compound 94]: in the data set on YAP (setting [6]), the EC50 was determined as 1 µM. Also, the IC50 in data set [4] is > 20 µM.

For the molecule `O=C(NCCCn1ccnn1)c1cc(-c2cccc(F)c2)on1` [Compound 74], the EC50 with YAP (setting [6]) stood at 15 µM. In addition, the IC50 in data set [4] was > 20 µM.

As to `O=C(NCCCn1cccc1)c1cc(-c2ccc(F)cc2)on1` [Compound 2], the EC50 with YAP (setting [6]) turned out to be 1.13 µM. Further, in data set [4], the IC50 was > 20 µM.

For `N#Cc1ccc(-c2cc(C(=O)NCCCn3cccc3)no2)cc1` [Compound 20], in the data set with YAP (setting [6]), the EC50 is > 20 µM. Besides, in [4], the IC50 was > 20 µM.

Consider `O=C(NCCc1ccccc1)c1n[nH]c2ccccc12` [Compound 148], for which the EC50 in the data set on YAP (setting [5]) was > 20 µM. Besides, the IC50 in data set [4] was > 20 µM.

Turning to `O=C(Nc1cccc(-c2nccs2)c1)c1cc(-c2ccccc2)on1` [Compound 37], the EC50 in the data set on YAP (setting [6]) was found to be 15 µM. The IC50 in data set [4] is > 20 µM.

Turning to `COc1ccc(-c2cc(C(=O)NCCCn3cccc3)no2)cc1` [Compound 3], the EC50 in the data set on YAP (setting [6]) was > 20 µM. The IC50 in data set [4] was > 20 µM.

For the molecule `Cc1ccc(N2CC(C(=O)NCc3n[nH]c4ccccc34)CC2=O)cc1` (stereo not shown) [Compound 156], the EC50 in the data set with YAP (setting [5]) was found to be 5 µM. The IC50 in data set [4] was > 20 µM.

On to `C[C@H](NC(=O)c1cc(-c2ccccc2)on1)c1ccccc1` [Compound 50], for which the EC50 in the data set with YAP (setting [6]) is > 20 µM. The IC50 in data set [4] is > 20 µM.

With `O=C(NCCCn1cccc1)c1cc(-c2cccnc2)on1` [Compound 21], the EC50 in the data set with YAP (setting [6]) is > 20 µM. Besides, the IC50 in data set [4] is > 20 µM.

On to `CN(C)CCN(C)C(=O)c1cc(-c2ccccc2)on1` [Compound 58], for which the EC50 in the data set with YAP (setting [6]) is > 20 µM. Further, the IC50 in [4] was > 20 µM.

As to `CC(CNC(=O)c1cc(-c2ccccc2)on1)c1ccc(Cl)cc1` (stereo not shown) [Compound 64], the EC50 with YAP (setting [6]) was > 20 µM. Besides, the IC50 in [4] is > 20 µM.

On to `O=C(NCCCn1cccc1)c1noc2c1OCc1ccccc1-2` [Compound 31], for which the EC50 in the data set on YAP (setting [6]) was > 20 µM. The IC50 in data set [4] was > 20 µM.

Take `O=C(NC1CC(OC(F)F)C1)c1cc(-c2ccccc2)on1` (stereo not shown) [Compound 45]: in the data set with YAP (setting [6]), the EC50 was determined as 3.17 µM. The IC50 in data set [4] is > 20 µM.

Turning to `O=C(NCCCn1cccc1)c1cc(-c2cccc(Cl)c2)on1` [Compound 1], in the data set with YAP (setting [6]), the EC50 was > 20 µM. The IC50 in data set [4] is > 20 µM.

Regarding `CC(=O)c1ccc(NC(=O)c2cc(-c3ccncc3)[nH]n2)cc1` [Compound 153], the EC50 in the data set on YAP (setting [5]) is > 20 µM. In addition, the IC50 in data set [4] is > 20 µM.

For the molecule `CN(C)CCN(C(=O)c1cc(-c2ccccc2)on1)c1ccccc1` [Compound 126], the EC50 with YAP (setting [5]) is > 20 µM. The IC50 in data set [4] is > 20 µM.

Values taken from patent US20240148747A1, “SMALL MOLECULE ACTIVATORS OF YAP TRANSCRIPTIONAL ACTIVITY FOR REGENERATIVE ORGAN REPAIR” (THE SCRIPPS RESEARCH INSTITUTE, priority 2021, published 2024).
